These results are taken from patent US20120214847A1, “2-[1-PHENYL-5-HYDROXY-4a-SUBSTITUTED-HEXAHYDROCYCLOPENTA[F]INDAZOL-5-YL]ETHYL PHENYL DERIVATIVES AS GLUCOCORTICOID RECEPTOR LIGANDS” (Merck Sharp & Dohme Corp., priority 2009, published 2012).

This assay deals with T1, human GR (Homo sapiens, UniProt P04150).
T1 construct: naturally expresses the human GR; endogenous in cells
T1 sequence (P04150 1-777): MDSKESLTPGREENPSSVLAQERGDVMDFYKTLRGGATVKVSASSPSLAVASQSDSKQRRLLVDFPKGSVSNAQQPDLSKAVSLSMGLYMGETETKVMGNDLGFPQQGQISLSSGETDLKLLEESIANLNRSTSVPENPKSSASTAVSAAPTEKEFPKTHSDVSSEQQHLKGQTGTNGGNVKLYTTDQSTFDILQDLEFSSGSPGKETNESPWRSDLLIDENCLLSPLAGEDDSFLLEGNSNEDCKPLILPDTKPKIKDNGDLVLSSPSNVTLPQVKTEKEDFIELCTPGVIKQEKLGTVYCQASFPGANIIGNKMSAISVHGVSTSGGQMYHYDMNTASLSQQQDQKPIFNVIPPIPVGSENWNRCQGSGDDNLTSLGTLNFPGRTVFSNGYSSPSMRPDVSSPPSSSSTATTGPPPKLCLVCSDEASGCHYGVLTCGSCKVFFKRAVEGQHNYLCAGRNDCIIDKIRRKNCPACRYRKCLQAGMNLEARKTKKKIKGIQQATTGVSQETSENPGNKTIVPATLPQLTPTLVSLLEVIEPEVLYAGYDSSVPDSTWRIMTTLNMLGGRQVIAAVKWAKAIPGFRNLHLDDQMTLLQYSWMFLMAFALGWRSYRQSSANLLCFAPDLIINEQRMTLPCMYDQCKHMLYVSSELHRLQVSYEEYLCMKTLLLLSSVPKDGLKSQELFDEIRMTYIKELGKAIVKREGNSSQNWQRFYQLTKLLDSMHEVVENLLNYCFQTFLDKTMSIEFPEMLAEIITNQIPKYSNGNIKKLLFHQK
In words: Transrepression assay (GITAR), TNFα-β-lactamase reporter in U937 cells. In kind it is cell-based. To be noted: for EC50 / Transrepression U937 Cells GITAR Emax (%): U937 cells; for EC50: IP = inflection point; for Transrepression U937 Cells GITAR Emax (%) / Emax: activity repressed by 100 nM dexamethasone alone set as 100%; for Emax: U-937, U937 cells. The gist of the method:
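U937 cells stably carrying TNFα promoter–β-lactamase, endogenous GR, preincubated with compound 30–45 min at 37° C., then stimulated with 5 ng/ml PMA plus 100 ng/ml LPS for ~18 h. CCF2-AM read-out; repression by 100 nM dexamethasone set as 100%.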

For the compound `OC(C[C@]1(O)CCC2=Cc3c(cnn3-c3ccc(F)cc3)C[C@@]21C1CC1)c1ccc(F)cn1` (single isomer, unassigned) [Example 79b], a half-maximal response (EC50) required 282 nM and the “Transrepression U937 Cells GITAR Emax (%)” value was determined as 54%.
`CC[C@]12Cc3cnn(-c4ccc(F)cc4)c3C=C1CC[C@@]2(O)CCc1ncccc1S(C)(=O)=O` [Example 80, (4aS,5R)-4a-Ethyl-1-(4-fluorophenyl)-5-{2-[3-(methylsulfonyl)pyridin-2-yl]ethyl}-1,4,4a,5,6,7-hexahydrocyclopenta[f]indazol-5-ol]: the EC50 came to 56 nM and the maximum response (Emax) is 70%.
Regarding `CC[C@]12Cc3cnn(-c4ccccc4)c3C=C1CC[C@@]2(O)CC(O)c1ccccn1` (single isomer, unassigned) [Example 82b], the EC50 is 277 nM and the “Transrepression U937 Cells GITAR Emax (%)” value was 44%.
On to `OCc1ccccc1CC[C@]1(O)CCC2=Cc3c(cnn3-c3ccc(F)cc3)C[C@@]21C1CC1` [Example 2, (4aR,5R)-4a-Cyclopropyl-1-(4-fluorophenyl)-5-{2-[2-(hydroxymethyl)phenyl]ethyl}-1,4,4a,5,6,7-hexahydrocyclopenta[f]indazol-5-ol], for which the midpoint of the response, the EC50, lay at 8 nM and the maximal response (Emax) came to 79%.
The compound `CC[C@]12Cc3cnn(-c4ccccc4)c3C=C1CC[C@@]2(O)CCc1ncccc1S(=O)(=O)C(C)C` [Example 81, (4aS,5R)-4a-Ethyl-5-{2-[3-(iso-propylsulfonyl)pyridin-2-yl]ethyl}-1-phenyl-1,4,4a,5,6,7-hexahydrocyclopenta[f]indazol-5-ol] displayed a concentration for a half-maximal effect (EC50) of 53 nM and an Emax of 68%.
Regarding `NC(=O)C(O)c1ccccc1CC[C@]1(O)CCC2=Cc3c(cnn3-c3ccc(F)cc3)C[C@@]21C1CC1` (single isomer, unassigned) [Example 3a], the 50% effective concentration (EC50) worked out at 85 nM and the “Transrepression U937 Cells GITAR Emax (%)” value is on record as 72%.
In the same order, the values of `CC[C@]12Cc3cnn(-c4ccccc4)c3C=C1CC[C@@]2(O)CC(O)c1ccccn1` (single isomer, unassigned) [Example 82a] are 217 nM and 54%.

The EC50 is the midpoint of the concentration-response curve. Read a high EC50 as weaker potency. The term Emax denotes the greatest response seen or fitted, relative to the assay's reference.
